Results: ChEMBL document CHEMBL3627688, “Structure-based hybridization, synthesis and biological evaluation of novel tetracyclic heterocyclic azathioxanthone analogues as potential antitumor agents” (Eur J Med Chem, 2015)
Calls of active or inactive are those of the source. The rule behind the calls is not given here.

Columns and labels:
[1] = test system: DU-145; experiment: Antiproliferative activity against human DU145 cells assessed as cell viability incubated for 72 hrs by MTT assay; assay type: functional, cell-based; conditions: DU-145, 72 h
[2] = test system: PC-3; experiment: Antiproliferative activity against human PC3 cells assessed as cell viability incubated for 72 hrs by MTT assay; assay type: functional, cell-based; conditions: PC-3, 72 h
[3] = target: DNA topoisomerase 1 (Homo sapiens) (UniProt P11387); experiment: Inhibition of human recombinant topoisomerase 1 assessed as blocking of supercoiled pHOT DNA relaxation at 50 uM incubated for 25 mins at 37 degC by ethidium bromide staining based agarose gel electrophoresis
Sequence of DNA topoisomerase 1 (Homo sapiens) (P11387 whole entry): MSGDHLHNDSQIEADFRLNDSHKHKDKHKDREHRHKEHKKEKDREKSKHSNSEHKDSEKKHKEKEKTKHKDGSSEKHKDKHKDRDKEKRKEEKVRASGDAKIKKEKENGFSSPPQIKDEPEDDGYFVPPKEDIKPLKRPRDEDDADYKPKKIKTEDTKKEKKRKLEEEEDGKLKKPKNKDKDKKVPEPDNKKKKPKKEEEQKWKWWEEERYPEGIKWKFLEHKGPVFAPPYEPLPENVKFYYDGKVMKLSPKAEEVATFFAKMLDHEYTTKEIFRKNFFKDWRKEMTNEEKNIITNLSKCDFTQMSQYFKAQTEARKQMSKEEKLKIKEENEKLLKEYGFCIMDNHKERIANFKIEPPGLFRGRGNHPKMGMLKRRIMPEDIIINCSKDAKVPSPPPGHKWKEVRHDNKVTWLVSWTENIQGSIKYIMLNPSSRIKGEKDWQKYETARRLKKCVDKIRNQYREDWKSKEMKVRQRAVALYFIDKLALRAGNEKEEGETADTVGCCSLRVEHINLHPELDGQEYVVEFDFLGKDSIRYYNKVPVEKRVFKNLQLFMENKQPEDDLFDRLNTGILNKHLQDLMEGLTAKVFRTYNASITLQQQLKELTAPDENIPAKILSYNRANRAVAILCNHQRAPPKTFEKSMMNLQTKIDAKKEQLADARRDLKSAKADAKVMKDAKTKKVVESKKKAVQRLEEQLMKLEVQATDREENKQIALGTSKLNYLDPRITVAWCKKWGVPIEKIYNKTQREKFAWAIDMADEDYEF

[4] = target: DNA topoisomerase 2-alpha (Homo sapiens) (UniProt P11388); experiment: Inhibition of human recombinant topoisomerase 2 alpha assessed as blocking of supercoiled pHOT DNA relaxation at 50 uM incubated for 45 mins at 37 degC by ethidium bromide staining based agarose gel electrophoresis
Sequence of DNA topoisomerase 2-alpha (Homo sapiens) (P11388 whole entry): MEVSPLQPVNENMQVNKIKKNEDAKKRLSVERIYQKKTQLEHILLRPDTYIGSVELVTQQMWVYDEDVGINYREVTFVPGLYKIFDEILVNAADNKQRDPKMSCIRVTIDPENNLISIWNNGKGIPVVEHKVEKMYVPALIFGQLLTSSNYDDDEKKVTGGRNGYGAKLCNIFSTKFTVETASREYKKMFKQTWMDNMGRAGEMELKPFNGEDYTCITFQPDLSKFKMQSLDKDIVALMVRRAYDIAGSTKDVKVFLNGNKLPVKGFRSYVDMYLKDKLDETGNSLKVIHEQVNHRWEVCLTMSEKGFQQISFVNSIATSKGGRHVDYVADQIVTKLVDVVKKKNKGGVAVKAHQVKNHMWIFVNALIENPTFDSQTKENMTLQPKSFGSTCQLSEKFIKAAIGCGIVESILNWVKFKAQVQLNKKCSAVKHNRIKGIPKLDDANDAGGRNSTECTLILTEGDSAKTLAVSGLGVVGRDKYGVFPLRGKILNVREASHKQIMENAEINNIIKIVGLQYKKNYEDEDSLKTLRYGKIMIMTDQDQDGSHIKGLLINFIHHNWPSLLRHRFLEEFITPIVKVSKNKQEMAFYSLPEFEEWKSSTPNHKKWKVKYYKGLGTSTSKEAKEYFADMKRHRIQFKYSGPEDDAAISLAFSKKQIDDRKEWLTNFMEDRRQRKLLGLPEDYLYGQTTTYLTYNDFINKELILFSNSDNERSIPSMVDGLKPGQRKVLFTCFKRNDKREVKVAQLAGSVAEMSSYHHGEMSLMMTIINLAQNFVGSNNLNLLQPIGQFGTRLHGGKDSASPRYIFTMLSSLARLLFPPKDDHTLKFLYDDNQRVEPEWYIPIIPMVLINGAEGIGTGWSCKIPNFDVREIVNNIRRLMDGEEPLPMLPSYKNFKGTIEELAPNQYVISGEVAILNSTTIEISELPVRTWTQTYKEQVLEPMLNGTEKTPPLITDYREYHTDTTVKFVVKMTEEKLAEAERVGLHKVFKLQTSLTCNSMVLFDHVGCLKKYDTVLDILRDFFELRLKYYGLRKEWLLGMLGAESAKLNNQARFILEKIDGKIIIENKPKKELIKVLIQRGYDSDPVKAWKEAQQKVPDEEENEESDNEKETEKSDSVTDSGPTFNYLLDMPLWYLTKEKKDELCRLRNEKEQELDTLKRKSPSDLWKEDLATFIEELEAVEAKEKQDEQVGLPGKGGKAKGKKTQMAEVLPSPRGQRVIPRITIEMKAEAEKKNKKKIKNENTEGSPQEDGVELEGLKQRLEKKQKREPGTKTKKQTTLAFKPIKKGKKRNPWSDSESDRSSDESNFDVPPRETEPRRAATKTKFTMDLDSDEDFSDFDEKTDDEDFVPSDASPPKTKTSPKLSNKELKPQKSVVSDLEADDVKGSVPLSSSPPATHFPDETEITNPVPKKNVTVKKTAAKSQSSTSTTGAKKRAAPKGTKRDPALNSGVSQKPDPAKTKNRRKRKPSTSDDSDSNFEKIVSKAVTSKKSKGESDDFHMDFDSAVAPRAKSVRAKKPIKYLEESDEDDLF

SMILES	IC50 [1] [µM]	IC50 [2] [µM]	inhibition [3]	inhibition [4]
COc1cccc2c1C(=O)c1c(O)c3c(c(O)c1C2=O)C[C@@](O)(C(=O)CO)C[C@@H]3O[C@H]1C[C@H](N)[C@H](O)[C@H](C)O1 [DOXORUBICIN]	0.12			
O=c1c2cc(Cl)ccc2sc2c(N3CCSCC3)nc3ccccc3c12	> 15	> 15		
O=c1c2cc(Cl)ccc2sc2c(N3CCC(Cc4ccccc4)CC3)nc3ccccc3c12	> 15	> 15		
O=c1c2cc(Cl)ccc2sc2c(N3CCC(O)CC3)nc3ccccc3c12	11.1	9.55	Active	
O=c1c2cc(Cl)ccc2sc2c(N3CCCCC3)nc3ccccc3c12	13.4	> 15		
CC[C@@]1(O)C(=O)OCc2c1cc1n(c2=O)Cc2cc3ccccc3nc2-1 [CAMPTOTHECIN]	0.1	0.1		
O=c1c2cc(Cl)ccc2sc2c(N3CCCC3)nc3ccccc3c12	> 15	> 15		
O=c1c2cc(Cl)ccc2sc2c(N3CCC(N4CCCCC4)CC3)nc3ccccc3c12	10.2	14.2		
COc1cc([C@@H]2c3cc4c(cc3[C@@H](O[C@@H]3O[C@@H]5CO[C@@H](C)O[C@H]5[C@H](O)[C@H]3O)[C@H]3COC(=O)[C@H]23)OCO4)cc(OC)c1O [ETOPOSIDE]	0.4	4.33		Active
O=c1c2cc(Cl)ccc2sc2c(N3CCC(CCCC4CCNCC4)CC3)nc3ccccc3c12	9.02	6.36	Active	
